Entries after “also recorded” stand apart in the source; their conditions may differ.
Assays:
U373 cells = experiment: Determination of cell adhesion (cell detachment assay with Methyl violet); format: cell-based, human; settings: for effect on cell adhesion; additives: effect on the Octenisept® induced reduction: U373, 1 hour, Octenisept® alone or 1:1 with additive 5%, 5 μl to 100 μl medium, FIG. 3
Protocol: The humane glioblastoma cell line U373 was cultured in Dulbecco's Modified Eagle Medium (DMEM) supplemented with 10% PCS (Gibco™), 2 mM glutamine (PPA) and 100 U/ml penicillin/streptomycin (PAA) at 37° and 5% CO2. The cells were cultivated in monolayer and passaged at 80% confluence. Before carrying out the cell adhesion experiments the cells were transferred onto 96-well plates and brought to confluence.
Cell adhesion was carried out as described in detail in the quotation (Uchide, N. and Toyoda H., (2007) J Immunol Methods, 328 (1-2): 215-9). U373 cells were incubated in 96-well plates with Octenisept® (final concentration 5% (v/v) Octenisept®, this equates 0.005% octenidine dihydrochloride) alone or with the specified additives (5% v/v) for 1 hour in glucose-free Leibovitz medium. After removing the supernatant the standardized washing procedure was executed 3 times after which PBS was added with a motor-controlled pipet which led to the detachment of non-adhesive cells. Afterward only those cells whose matrix had formed a solid connection were fixed with glutaraldehyde and after removal of the glutaraldehyde stained with Methyl violet. The precipitated stain was dissolved with an SDS buffer and the extinction was measured at 550 nm in an ELISA plate reader.
It was now examined whether this additive ensures effects which can contribute to the improvement of wound healing. U373 cells were incubated for 1 hour in Leibovitz medium with Octenisept® alone or with additives (1:1 with glucose 5% or NaCl 0.9%). In each case 5 μl of the respective solution was added to 100 μl of medium. After washing and staining of the adherent cells with crystal violet the extinction was measured at 550 nm (FIG. 2a). The extinction of the controls was set to 1. Statistical significances were determined with Bonferroni's Multiple Comparison Test (**: p<0.01, ***<0.001).
Polyalcohols form a broad compound class and it was therefore examined whether single subgroups have different effects in the adhesion test. U373 cells were incubated in Leibovitz medium with 5 μl additive to 100 μl medium in each case for 1 hour with Octenisept® alone (−) or with additives (1:1 with polyalcohol 5%, glucose, 2-deoxyglucose (2-deoxyG.), lactose, saccharose, fructose, glucuronic acid, polyethylene glycol (PEG), chondroitin-4-sulfate (ch.4-s.), chondroitin-6-sulfate (ch.-6-s.) dermatan sulfate (dermatan-s.) or dextran sulfate (dextran-s.)). After washing and staining of the adherent cells with Methyl violet the extinction was measured at 550 nm. (Bars represent the mean value±SD of two independent experiments (measured in triplicates)). The extinction of the controls was set to 1. Statistical significances were determined with Bonferroni's Multiple Comparison Test (**: p<0.01, ***<0.001).
U373 cells were incubated for one hour with Octenisept® (1:20 in medium) alone (G0) or with Octenisept® and different volumes of a 5% glucose solution (resulting final dilution 1:200-1:2 in Leibovitz medium).

[1] = Precipitation assay of Octenisept® with NaCl or carbohydrates; format: physicochemical; settings: equal parts Octenisept® and diluent (5%), 4° C.
Protocol: The stability of the solubility of the components of Octenisept® in NaCl solution as an indicator for their interaction was determined through the analysis of the precipitates. After the co-incubation of Octenisept® with equal parts of 0.9% w/v NaCl or 5% carbohydrates in sterile aqua bidest for 3, 12, 24 and 72 hours at 4° C. the solutions were centrifuged at 2500 rpm for 5 minutes and the precipitate, if existing, was analyzed with the Zeiss inverted microscope with a digital camera with the METAVIEW micro-photography documentation system.

[2] = concentration series with glucose, FIG. 4

Row | Compound | effect on cell adhesion; additives: effect on the Octenisept® induced reduction (U373 cells) | further results
1 | O=CC[C@@H](O)[C@H](O)[C@H](O)CO [2-deoxyglucose] | improved | –
2 | O=C(CO)[C@@H](O)[C@H](O)[C@H](O)CO [fructose] | improved | –
3 | O=C[C@H](O)[C@@H](O)[C@H](O)[C@H](O)CO [glucose] | improved | effect of glucose addition on Octenisept® reduced cell adherence (U373 cells; 5% glucose solution, final dilution 1:200 or 1:100, FIG. 4): tendentially improved; optimal glucose addition, final concentration (U373 cells; [2]): 0.1%; optimal glucose addition, in the stock solution (U373 cells; [2]): 2%; optimal absolute glucose in the Octenisept solution (U373 cells; corresponds to dilution 1:20 of 5% glucose): 0.25%
4 | O=C[C@H](O)[C@@H](O)[C@H](O)[C@H](O)C(=O)O [glucuronic acid] | improved | effect on cell adhesion; additives: effect on the Octenisept® induced reduction (U373 cells; listed as Glucuronic acid): positive effect
5 | OC[C@H]1O[C@@H](O[C@H]2[C@H](O)[C@@H](O)C(O)O[C@@H]2CO)[C@H](O)[C@@H](O)[C@H]1O (some centres unmarked) [lactose] | improved | –
6 | OC[C@H]1O[C@@](CO)(O[C@H]2O[C@H](CO)[C@@H](O)[C@H](O)[C@H]2O)[C@@H](O)[C@@H]1O [saccharose] | improved; also recorded: without impairing the effect | –
7 | chondroitin sulfate | – | sediment / crystals / turbidity of Octenisept® mixed with diluent [1]: quick micro-crystalline or colloidal turbidity
8 | chondroitin-4-sulfate | significantly reduced the adhesion to under the values of NaCl | –
9 | chondroitin-6-sulfate | significantly reduced the adhesion to under the values of NaCl | –
10 | dermatan sulfate | significantly reduced the adhesion to under the values of NaCl | sediment / crystals / turbidity of Octenisept® mixed with diluent [1]: quick micro-crystalline or colloidal turbidity
11 | dextran sulfate | significantly reduced the adhesion to under the values of NaCl | –
12 | heparan sulfate | – | sediment / crystals / turbidity of Octenisept® mixed with diluent [1]: quick micro-crystalline or colloidal turbidity
13 | polyethylene glycol | improved | effect on cell adhesion; additives: effect on the Octenisept® induced reduction (U373 cells; listed as PEG): slight reduction of the positive effect
